Legend:
[1] = tested on: poly(A)2poly(U) (RNA triple helix) (RNA, polymer) A/U; assay: absorbance titration; settings: Na+ (NaCl 0.1 M); NaCac 2.5 mM, pH 7.0
[2] = tested on: Tel-23 (DNA telomeric G4) (DNA, G4) TAGGGTTAGGGTTAGGGTTAGGG; assay: absorbance titration
[3] = tested on: poly(A) (RNA, polymer) A; assay: absorbance titration; settings: Na+ (NaCl 0.1 M), NaCac 2.5 mM, pH 7.0
[4] = tested on: poly(A)poly(U) (RNA, polymer) A/U; assay: absorbance titration; settings: Na+ (NaCl 0.1 M), NaCac 2.5 mM
[5] = target: T1, bovine serum albumin (BSA) (Bos taurus, UniProt P02769); assay: BSA intrinsic fluorescence quenching titration ([…] °C), […] model; no adduct by ESI-MS; type: binding
T1 construct: gene ALB
T1 sequence (P02769 25-607): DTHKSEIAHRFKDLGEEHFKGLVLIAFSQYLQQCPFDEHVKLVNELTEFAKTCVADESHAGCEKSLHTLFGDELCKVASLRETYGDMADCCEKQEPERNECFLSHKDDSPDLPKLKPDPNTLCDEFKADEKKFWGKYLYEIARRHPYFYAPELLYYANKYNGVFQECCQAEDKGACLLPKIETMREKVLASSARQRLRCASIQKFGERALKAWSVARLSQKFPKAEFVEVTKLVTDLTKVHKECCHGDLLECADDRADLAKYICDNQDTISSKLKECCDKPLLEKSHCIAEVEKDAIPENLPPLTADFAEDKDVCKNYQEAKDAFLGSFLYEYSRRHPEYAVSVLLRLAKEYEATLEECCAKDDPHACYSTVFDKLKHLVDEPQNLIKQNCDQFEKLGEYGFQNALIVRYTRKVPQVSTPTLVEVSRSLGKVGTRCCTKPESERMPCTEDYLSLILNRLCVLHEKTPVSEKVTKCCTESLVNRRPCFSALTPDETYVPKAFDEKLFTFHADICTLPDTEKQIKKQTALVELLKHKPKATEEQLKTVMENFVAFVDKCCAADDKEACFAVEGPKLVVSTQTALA

## CCN1[C]N(Cc2c3ccccc3cc3ccccc23)C=C1.CCN1[C]N(Cc2c3ccccc3cc3ccccc23)C=C1.[Ag+]
[1]
  binding: no
[2]; very slight spectral variations, conclusions state no interaction
  binding: weak
[3]
  binding: no
[4]; pH 7.0, 25.0 °C, apparent, per base pair, per base
  Kpoly(A)poly(U): (1.5 ± 3) × 10^3 M^-1

## CCN1[C]N(Cc2c3ccccc3cc3ccccc23)C=C1.CCN1[C]N(Cc2c3ccccc3cc3ccccc23)C=C1.[Au+]
[2]; unselective outer binding, fit not converging
  binding: yes
[3]; external binding, fit not converging
  binding: yes
[4]; pH 7.0, external binding, fit not converging
  binding: yes

## CCn1ccn(Cc2c3ccccc3cc3ccccc23)[c]1=[Ag]([Cl])=[c]1n(CC)ccn1Cc1c2ccccc2cc2ccccc12 [[Ag(EIA)2]Cl, bis(1-(anthracen-9-ylmethyl)-3-ethylimidazol-2-ylidene) silver chloride]
[5]
  BSA intrinsic fluorescence quenching titration (15-50 °C), 1:1 model; no adduct: the silver complex interacts with the protein but with a reversible weak process based on electrostatics

— PMC7699860 (Molecules, 2020)
